Experiments:
[1] = system: proliferation of endometric lacework (uterus); test: In vivo progestomimetic activity, Clauberg test on immature rabbits; set-up: species or system rabbit; conditions: for progestomimetic activity in vivo (in words): compared with ethynylnortestosterone, Table III; for endometrial proliferation, MacPhail Units: subcutaneous, 5 days
Method: The progestomimetic activity of products A, B and C were determined by the Clauberg test on immature rabbits previously sensibilized by subcutaneous administration of estradiol for 5 days at a daily dose of 5 μg. The test products were used in solution in olive oil containing 5% of benzyl alcohol and were subcutaneously administered for 5 days at different doses. The animals were killed on the 6th day and the uterus was removed to determine the proliferation of endometric lacework which is characteristic of progestomimetic activity. The results were compared with ethynylnortesterone administered in the same method in the same solvent. The results were expressed in MacPhail units in Table III.

[2] = target: T1, uterine reception of progesterone (Oryctolagus cuniculus, UniProt P06186); test: Progestomimetic activity by hormonal receptor method (displacement of tritiated product R in rabbit uterus cytosol); type: binding; conditions: for activity weaker than progesterone: from Table I; for progestomimetic activity (in words): conclusion from Table I; for relative affinity of the test product (ARL), progestomimetic: rabbit uterus cytosol, 0° C., 2 hours, progesterone = 100
T1 construct: from tissue; host or cells: uterus cytosol (105,000 g supernatant) of immature rabbits primed with estradiol
T1 sequence (P06186 1-930): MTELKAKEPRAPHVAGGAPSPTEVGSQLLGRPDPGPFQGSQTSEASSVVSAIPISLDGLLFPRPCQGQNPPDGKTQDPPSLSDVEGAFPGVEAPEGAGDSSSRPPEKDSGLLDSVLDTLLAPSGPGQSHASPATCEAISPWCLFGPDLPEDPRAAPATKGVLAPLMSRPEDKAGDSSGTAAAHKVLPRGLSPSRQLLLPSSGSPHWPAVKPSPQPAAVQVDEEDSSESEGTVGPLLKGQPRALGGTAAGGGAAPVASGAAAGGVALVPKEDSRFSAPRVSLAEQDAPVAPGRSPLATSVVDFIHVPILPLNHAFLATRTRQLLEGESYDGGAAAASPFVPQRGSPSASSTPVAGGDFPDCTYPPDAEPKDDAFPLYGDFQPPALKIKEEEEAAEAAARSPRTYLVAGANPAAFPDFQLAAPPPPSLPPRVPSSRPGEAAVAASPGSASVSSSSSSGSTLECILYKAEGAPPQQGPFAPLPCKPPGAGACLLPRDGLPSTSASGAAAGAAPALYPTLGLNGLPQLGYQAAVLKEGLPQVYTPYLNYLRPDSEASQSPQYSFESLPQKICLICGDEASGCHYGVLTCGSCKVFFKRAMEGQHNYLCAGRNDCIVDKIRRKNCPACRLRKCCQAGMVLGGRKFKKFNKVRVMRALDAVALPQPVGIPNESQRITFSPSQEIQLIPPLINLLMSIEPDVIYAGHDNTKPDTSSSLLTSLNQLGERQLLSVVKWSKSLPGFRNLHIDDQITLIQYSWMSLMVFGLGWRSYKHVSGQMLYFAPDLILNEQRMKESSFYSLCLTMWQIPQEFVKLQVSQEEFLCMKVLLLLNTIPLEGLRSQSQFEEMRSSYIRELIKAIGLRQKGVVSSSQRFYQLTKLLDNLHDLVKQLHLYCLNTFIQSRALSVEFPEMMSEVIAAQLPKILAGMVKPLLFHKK
Method: The progestomimetic activity was determined by the hormonal receptor method of Raynaud et al [J. Ster. Biochem., Vol. 6 (1975), p-615-622 and Physiology and Genetics of Reproduction, part A (1975), p. 143-160]. Immature rabbits received subcutaneously 25γ of estradiol and 5 days later, the animals were sacrificed and the uterus was removed and homogenized in a buffered solution of 10 mM of tromethamine, 0.25 M of saccharose and a pH of 7.4 with hydrochloric acid. The homogenate was centrifuged at 105,000 g during one hour and the surnageant or cytosol was adjusted to a dilution of 1/50 (weight/volume). The resulting solution was incubated at 0° C. for 2 hours in tubes with the same volume of cytosol with a fixed concentration of tritiated 17,21-dimethyl-19-nor-Δ^4,9 -pregnadiene-3-20-dione (designated as tritiated Product R) in the presence or not of an increasing concentration of radioinactive 17,21-dimethyl-19-nor-Δ^4,9 -pregnadiene-3,20-dione (designated as cold product R) or progesterone or the test product. The radioactivity of the tritiated product R was determined after 2 hours by the technique of adsorption on carbon-dextran (1.25-0.625%). The curves representing the percentage of tritiated product R as a function of the log of the concentration, of cold product R, of progresterone or the test products and the I50 straight line parallel to the axis of the abcissess and ordinates [formula] were ploted. B/T max. is the percentage of tied tritiated product R when the product is not added and B/T min. is the percentage of tied tritiated product R when the maximum amount of cold product R is added. The intersections of these I50 straight lines and the curves permit the determination of the values: CP and CX: CP - concentration of cold progesterone which inhibits by 50% the fixation of the tritiated product R and CX - concentration of test product which inhibits by 50% the fixation of the tritiated product R. The relative affinity of the test product (ARL) was determined by the formula [formula] and the results are reported in Table I.

[3] = target: T2, prostatic reception of testosterone (Rattus norvegicus, UniProt P15207); test: Androgenic activity by hormonal receptor method (displacement of tritiated product R in rat prostate cytosol); type: binding; conditions: for relative affinity of the test product (ARL), androgenic: castrated male rat prostate cytosol, 0° C., 2 hours, testosterone = 100; for affinity for prostatic reception of testosterone (in words) / androgenic activity (in words): conclusion from Table II
T2 construct: The prostate was recovered from male rats castrated 24 hours earlier and was homogenized; from tissue; host or cells: prostate cytosol (105,000 g supernatant) of male rats castrated 24 hours earlier
T2 sequence (P15207 1-902): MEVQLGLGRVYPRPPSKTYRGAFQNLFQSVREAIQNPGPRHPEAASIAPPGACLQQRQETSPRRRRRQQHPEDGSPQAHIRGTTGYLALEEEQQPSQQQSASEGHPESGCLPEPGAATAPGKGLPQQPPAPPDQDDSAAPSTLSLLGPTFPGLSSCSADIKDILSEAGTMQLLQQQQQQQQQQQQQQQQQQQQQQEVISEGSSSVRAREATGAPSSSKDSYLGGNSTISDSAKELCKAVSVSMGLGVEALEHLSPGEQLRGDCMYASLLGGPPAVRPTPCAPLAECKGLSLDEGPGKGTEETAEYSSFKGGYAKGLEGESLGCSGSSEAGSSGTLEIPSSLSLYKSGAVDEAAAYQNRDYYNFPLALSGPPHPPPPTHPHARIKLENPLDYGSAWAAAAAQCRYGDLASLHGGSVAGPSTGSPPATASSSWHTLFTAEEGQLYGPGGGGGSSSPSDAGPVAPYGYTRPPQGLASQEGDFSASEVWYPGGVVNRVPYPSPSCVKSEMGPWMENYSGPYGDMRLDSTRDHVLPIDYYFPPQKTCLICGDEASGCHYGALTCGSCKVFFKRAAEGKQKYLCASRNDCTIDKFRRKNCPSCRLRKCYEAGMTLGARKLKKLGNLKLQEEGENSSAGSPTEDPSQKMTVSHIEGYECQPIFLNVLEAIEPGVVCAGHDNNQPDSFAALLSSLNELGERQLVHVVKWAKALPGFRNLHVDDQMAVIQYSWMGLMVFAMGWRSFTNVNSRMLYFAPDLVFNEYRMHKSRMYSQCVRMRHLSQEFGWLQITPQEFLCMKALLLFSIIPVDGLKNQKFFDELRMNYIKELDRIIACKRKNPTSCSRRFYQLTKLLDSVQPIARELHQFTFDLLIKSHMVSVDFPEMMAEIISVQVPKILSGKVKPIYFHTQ
Method: This test also used the method of Raynaud et al discussed above. The prostate was recovered from male rats castrated 24 hours earlier and was homogenized in a buffer containing 10 mM of tromethamine and 0.25 M of saccharose and sufficient hydrochloric acid for a pH of 7.4 The homogenate was centrifuged at 105,000 g for one hour and the surnageant liquid or cytosol was adjusted to a dilution of 1/5 (weight/volume).
The radioactivity of the tied tritiated product was determined after 2 hours by absorption technique on carbondextran (1.25%-0.625%). […] B/T max. is the percentage of tied tritiated product R when the product is not added and B/T min. is the percentage of tied tritiated product R when the maximum amount of cold product R is added.

Row | SMILES | progestomimetic activity in vivo (in words) [1] | endometrial proliferation, MacPhail Units ([1]; dose 1 mg) | endometrial proliferation, MacPhail Units ([1]; dose 2 mg) | endometrial proliferation, MacPhail Units ([1]; dose 200 γ) | activity weaker than progesterone ([2]; compared with progesterone) | progestomimetic activity (in words) [2] | relative affinity of the test product (ARL), progestomimetic [2] | relative affinity of the test product (ARL), androgenic [3] | affinity for prostatic reception of testosterone (in words) [3] | androgenic activity (in words) [3] | endometrial proliferation, MacPhail Units ([1]; dose 100 γ) | endometrial proliferation, MacPhail Units ([1]; dose 500 γ) | endometrial proliferation, MacPhail Units ([1]; dose 2500 γ) | affinity for specific uterine reception of progesterone (in words) ([2]; compared with progesterone)
1 | C[C@]12CCC3=C4CCC(=O)C=C4CC[C@H]3[C@@H]1CC[C@@]2(O)c1ccccc1 [Product B, 17α-phenyl-Δ^4,9-estradiene-17β-ol-3-one] | progestomimetic activity greater than ethynylnortestosterone | 2.8 MacPhail Units | 3.0 MacPhail Units | 1 MacPhail Units | about 3 times | progestomimetics | 37 | 0.2 | practically devoid of an affinity | devoid of adrogenic activity | – | – | – | –
2 | C[C@]12C=CC3=C4CCC(=O)C=C4CC[C@H]3[C@@H]1CC[C@@]2(O)c1ccccc1 [Product C, 17α-phenyl-Δ^4,9,11-estratriene-17β-ol-3-one] | about the same order of activity as ethynylnortestosterone | 1.8 MacPhail Units | 2.9 MacPhail Units | 0.8 MacPhail Units | about 3 times | progestomimetics | 27 | ≤ 0.1 | practically devoid of an affinity | devoid of adrogenic activity | – | – | – | –
3 | C[C@]12CC[C@H]3[C@@H](CCC4=CC(=O)CC[C@@H]43)[C@@H]1CC[C@@]2(O)c1ccccc1 [Product A, 17α-phenyl-Δ^4-estrene-17β-ol-3-one] | progestomimetic activity greater than ethynylnortestosterone | – | – | – | – | progestomimetics | 80 | 0.3 | practically devoid of an affinity | devoid of adrogenic activity | 2 MacPhail Units | 2.7 MacPhail Units | 3 MacPhail Units | comparable to that of progesterone
4 | C#C[C@]1(O)CC[C@H]2[C@@H]3CCC4=CC(=O)CC[C@@H]4[C@H]3CC[C@@]21C [ethynylnortestosterone, reference compound] | – | – | – | – | – | – | – | – | – | – | 1.2 MacPhail Units | 1.5 MacPhail Units | 2 MacPhail Units | –

Source: US4242335A, “Novel 17α-aryl-steroids” (Roussel Uclaf, priority 1977, dated 1980)
